Assay results reported in patent publication US12649733B2, “3,6-diamino-pyridazin-3-yl derivatives, pharmaceutical compositions containing them and their uses as pro-apoptotic agents” (LES LABORATOIRES SERVIER, priority 2019, dated 2026).

Experiments:
Bcl-xL protein = target: T1, Bcl-xL protein (Homo sapiens, UniProt Q07817, N197C); assay: Fluorescence quenching assay (PUMA peptide displacement); assay type: binding; conditions: 1 nM protein, 400 nM peptide, 2 hours at 23° C.; KI determined from IC50
T1 construct: (2-197)[N197C]; His-His (two His8 stretches joined by a Gly/Ala/Ser/Thr linker)
From the text: Fluorescence quenching assay measures the change in fluorescence intensity of C-terminally Cy5-labeled BCL-xL protein, His-His-(EK)-hs ? (2-197)[N197C] (UniProtKB® primary accession number Q07817-1) having an amino acid sequence (SEQ ID:03): [[…] […] […] […] […]] which is linked in C-terminal region to the amino acid X which corresponds to a cysteine labeled on the sulfur with Sulfo-Cyanine5 from Lumiprobe GmbH catalogue number 13380, upon binding of a C-terminally labeled peptide derived from PUMA (UniProtKB® primary accession number Q9BXH1) having an aminoacid sequence (SEQ ID:04): [[…]] which is linked in C-terminal region to the amino acid X′ where X′ is cysteine labeled on the sulfur with TQ5WS from AAT Bioquest catalogue number 2079.
The addition of a compound which binds competitively to the same site as the peptide will result in an increase in the fluorescence intensity of the protein due to displacement of the fluorescence quencher.
An 11-point serial dilution of each compound was prepared in DMSO the final buffer conditions were 10 mM 4-(2-hydroxyethyl)-1-piperazineethanesulfonic acid [HEPES], 150 mM NaCl, 0.05% Tween 20, pH 7.4 and 5% DMSO. The final protein concentration in the assay was 1 nM with the peptide present at 400 nM. The experiments were incubated for 2 hours at 23° C. before fluorescence intensity was measured on a Biotek SynergyNeo plate reader (Excitation 620 nm, emission 680 nm). […] The KI values were determined from the IC50 values according to Cer et al, Nucleic Acids Res, 2009, Jul. 1: 37(WebServer issue): W441-W445.

MOLT-4 cells = assay: MOLT-4 cell viability, MTT assay; assay type: cell-based; conditions: Homo sapiens, MOLT-4, 48 h, 48 h exposure
How it was run: (§1)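 Viability read by MTT reduction (OD 540 nm after overnight SDS/HCl lysis) after 48 h compound treatment of cells in RPMI 1640/10% FBS. Triplicates at nine concentrations, 3.16-fold apart; four-parameter curve fitting yields IC50.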

BCLXL = BCLXL (Homo sapiens, UniProt Q07817, V10N/V9A); assay: Fluorescence polarisation assay (PUMA-based probe displacement); assay type: binding; also: 20 nM protein, 10 nM fluorescent probe
H146 cells = assay: H146 cell viability, MTT assay; assay type: cell-based; conditions: Homo sapiens, NCI-H146, 48 h, 48 h exposure
How it was run: as §1

Chain of BCLXL (Q07817 with tags, fused parts or gaps V9A/V10N): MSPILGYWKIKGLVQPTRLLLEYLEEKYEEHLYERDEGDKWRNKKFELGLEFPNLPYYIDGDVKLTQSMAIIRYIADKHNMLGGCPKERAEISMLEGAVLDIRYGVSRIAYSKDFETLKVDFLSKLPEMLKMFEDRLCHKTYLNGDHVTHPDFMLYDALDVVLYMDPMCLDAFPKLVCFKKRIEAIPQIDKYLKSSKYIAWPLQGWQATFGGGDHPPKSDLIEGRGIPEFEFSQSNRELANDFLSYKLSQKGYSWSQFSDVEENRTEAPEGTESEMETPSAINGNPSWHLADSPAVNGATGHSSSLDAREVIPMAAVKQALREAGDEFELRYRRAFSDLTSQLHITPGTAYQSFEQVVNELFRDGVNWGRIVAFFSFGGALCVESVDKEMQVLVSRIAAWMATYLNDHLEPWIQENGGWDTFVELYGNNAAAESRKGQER
T1 sequence (Q07817 2-197 N197C): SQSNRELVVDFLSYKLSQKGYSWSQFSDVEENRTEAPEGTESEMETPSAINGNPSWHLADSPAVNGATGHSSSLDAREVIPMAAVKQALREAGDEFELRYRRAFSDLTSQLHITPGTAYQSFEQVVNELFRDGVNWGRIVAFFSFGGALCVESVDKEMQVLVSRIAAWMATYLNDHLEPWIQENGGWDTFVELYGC

Ki (Bcl-xL protein) [nM] | IC50 (MOLT-4 cells) [nM] | Ki (BCLXL) [nM] | IC50 (H146 cells) [nM] | Compound
0.0017 |  |  |  | CNCC#Cc1ccc(OCCCc2sc(N(CCCC[N+](C)(C)C)c3cc(C)c(Nc4nc5ccccc5s4)nn3)nc2C(=O)O)c(F)c1 [Example 232, 2-[[6-(1,3-Benzothiazol-2-ylamino)-5-methyl-pyridazin-3-yl]-[4-(trimethylammonio)butyl]amino]-5-[3-[2-fluoro-4-[3-(methylamino)prop-1-ynyl]phenoxy]propyl]thiazole-4-carboxylate]
0.0078 | 525 |  |  | Cc1cc(N(CCCCP(=O)(O)O)c2nc(C(=O)O)c(CCCOc3ccc(C#CCN(C)C)cc3F)s2)nnc1Nc1nc2ccccc2s1 [Example 242, 2-({6-[(1,3-Benzothiazol-2-yl)amino]-5-methylpyridazin-3-yl}(4-phosphonobutyl)amino)-5-(3-{4-[3-(dimethylamino)prop-1-yn-1-yl]-2-fluorophenoxy}propyl)-1,3-thiazole-4-carboxylic acid]
0.0033 | 30.8 |  |  | Cc1cc(N(C)c2ccc(-c3cnn(CC45CC6(C)CC(C)(C4)CC(OCCNCCC(=O)O)(C6)C5)c3C)c(C(=O)O)n2)nnc1Nc1nc2ccccc2s1 [Example 271, 6-[[6-(1,3-benzothiazol-2-ylamino)-5-methyl-pyridazin-3-yl]-methyl-amino]-3-[1-[[3-[2-(2-carboxyethylamino)ethoxy]-5,7-dimethyl-1-adamantyl]methyl]-5-methyl-pyrazol-4-yl]pyridine-2-carboxylic acid]
0.0012 | 2.81 |  |  | Cc1cc(N(C)c2ccc(-c3cnn(CC45CC6(C)CC(C)(C4)CC(OCCNCC[C@H](O)CO)(C6)C5)c3C)c(C(=O)O)n2)nnc1Nc1nc2ccccc2s1 [Example 247, 6-[{6-[(1,3-benzothiazol-2-yl)amino]-5-methylpyridazin-3-yl}(methyl)amino]-3-(1-{[3-(2-{[(3S)-3,4-dihydroxybutyl]amino}ethoxy)-5,7-dimethyladamantan-1-yl]methyl}-5-methyl-1H-pyrazol-4-yl)pyridine-2-carboxylic acid]
0.0094 | 1190 |  |  | Cc1cc(N(CCCCS(=O)(=O)O)c2nc(C(=O)O)c(CCCOc3ccc(C#CCN(C)C)cc3F)s2)nnc1Nc1nc2ccccc2s1 [Example 241, 2-({6-[(1,3-Benzothiazol-2-yl)amino]-5-methylpyridazin-3-yl}(4-sulfobutyl)amino)-5-(3-{4-[3-(dimethylamino)prop-1-yn-1-yl]-2-fluorophenoxy}propyl)-1,3-thiazole-4-carboxylic acid]
0.0027 | 0.182 |  |  | COCCCNCCOC12CC3(C)CC(C)(CC(Cn4ncc(-c5ccc(N(C)c6cc(C)c(Nc7nc8ccccc8s7)nn6)nc5C(=O)O)c4C)(C3)C1)C2 [Example 269, 6-[[6-(1,3-benzothiazol-2-ylamino)-5-methyl-pyridazin-3-yl]-methyl-amino]-3-[1-[[3-[2-(3-methoxypropylamino)ethoxy]-5,7-dimethyl-1-adamantyl]methyl]-5-methyl-pyrazol-4-yl]pyridine-2-carboxylic acid]
0.0053 | 752 |  |  | Cc1cc(N(CCCCC[N+](C)(C)CCO)c2nc(C(=O)[O-])c(CCCOc3ccc(C#CCN(C)C)cc3F)s2)nnc1Nc1nc2ccccc2s1 [Example 226, 2-[[6-(1,3-Benzothiazol-2-ylamino)-5-methyl-pyridazin-3-yl]-[5-[2-hydroxyethyl(dimethyl)ammonio]pentyl]amino]-5-[3-[4-[3-(dimethylamino)prop-1-ynyl]-2-fluoro-phenoxy]propyl]thiazole-4-carboxylate]
0.0043 |  |  |  | Cc1cc(N(CCCCNC2CCN(C)CC2)c2nc(C(=O)O)c(CCCOc3ccc(C#CCN(C)C)cc3F)s2)nnc1Nc1nc2ccccc2s1 [Example 181, 2-[[6-(1,3-Benzothiazol-2-ylamino)-5-methyl-pyridazin-3-yl]-[4-[(1-methyl-4-piperidyl)amino]butyl]amino]-5-[3-[4-[3-(dimethylamino)prop-1-ynyl]-2-fluoro-phenoxy]propyl]thiazole-4-carboxylic acid]
0.0023 | 0.284 |  |  | Cc1cc(N(C)c2ccc(-c3cnn(CC45CC6(C)CC(C)(C4)CC(OCCNCc4cccc(O)c4)(C6)C5)c3C)c(C(=O)O)n2)nnc1Nc1nc2ccccc2s1 [Example 272, 6-[[6-(1,3-benzothiazol-2-ylamino)-5-methyl-pyridazin-3-yl]-methyl-amino]-3-[1-[[3-[2-[(3-hydroxyphenyl)methylamino]ethoxy]-5,7-dimethyl-1-adamantyl]methyl]-5-methyl-pyrazol-4-yl]pyridine-2-carboxylic acid]
0.0052 |  |  |  | Cc1cc(N(CCCCNCCN2CCOCC2)c2nc(C(=O)O)c(CCCOc3ccc(C#CCN(C)C)cc3F)s2)nnc1Nc1nc2ccccc2s1 [Example 180, 2-[[6-(1,3-Benzothiazol-2-ylamino)-5-methyl-pyridazin-3-yl]-[4-(2-morpholinoethylamino)butyl]amino]-5-[3-[4-[3-(dimethylamino)prop-1-ynyl]-2-fluoro-phenoxy]propyl]thiazole-4-carboxylic acid]
0.023 |  |  |  | CNCC#Cc1ccc(OCCCc2sc(N(C)c3cc(C(F)(F)F)c(Nc4nc5ccccc5s4)nn3)nc2C(=O)O)c(F)c1 [Example 209, 2-[[6-(1,3-Benzothiazol-2-ylamino)-5-(trifluoromethyl)pyridazin-3-yl]-methyl-amino]-5-[3-[2-fluoro-4-[3-(methylamino)prop-1-ynyl]phenoxy]propyl]thiazole-4-carboxylic acid]
0.0068 |  |  |  | Cc1cc(N(CCCCNCCN2CCCCC2)c2nc(C(=O)O)c(CCCOc3ccc(C#CCN(C)C)cc3F)s2)nnc1Nc1nc2ccccc2s1 [Example 179, 2-[[6-(1,3-Benzothiazol-2-ylamino)-5-methyl-pyridazin-3-yl]-[4-[2-(1-piperidyl)ethylamino]butyl]amino]-5-[3-[4-[3-(dimethylamino)prop-1-ynyl]-2-fluoro-phenoxy]propyl]thiazole-4-carboxylic acid]
0.0074 |  |  |  | CNCCN(C)CCCCN(c1cc(C)c(Nc2nc3ccccc3s2)nn1)c1nc(C(=O)O)c(CCCOc2ccc(C#CCN(C)C)cc2F)s1 [Example 178, 2-[[6-(1,3-Benzothiazol-2-ylamino)-5-methyl-pyridazin-3-yl]-[4-[methyl-[2-(methylamino)ethyl]amino]butyl]amino]-5-[3-[4-[3-(dimethylamino)prop-1-ynyl]-2-fluoro-phenoxy]propyl]thiazole-4-carboxylic acid]
 | > 15000 | 190 | > 15000 | CCN(CC)CCCN(c1cc(C)c(Nc2nc3ccccc3s2)nn1)c1nc(C(=O)O)cs1 [Example 46, 2-({6-[(1,3-Benzothiazol-2-yl)amino]-5-methylpyridazin-3-yl}[3-(diethylamino)propyl]amino)-1,3-thiazole-4-carboxylic acid]
 | 2320 | 4 | 207 | Cc1c(Nc2nc(C(=O)O)c(CCCOc3ccccc3)s2)nnc(Nc2nc3ccccc3s2)c1C [Example 9, 2-({6-[(1,3-Benzothiazol-2-yl)amino]-4,5-dimethylpyridazin-3-yl}amino)-5-(3-phenoxypropyl)-1,3-thiazole-4-carboxylic acid]
 | 701 | 15 | 1650 | Cc1c(-c2sc(N(C)c3cc(C4CC4)c(Nc4nc5ccccc5s4)nn3)nc2C(=O)O)cnn1CC12CC3CC(CC(C3)C1)C2 [Example 53, 5-{1-[(Adamantan-1-yl)methyl]-5-methyl-1H-pyrazol-4-yl}-2-({6-[(1,3-benzothiazol-2-yl)amino]-5-cyclopropylpyridazin-3-yl}(methyl)amino)-1,3-thiazole-4-carboxylic acid]
 | 3310 | 140 | 6930 | O=C(O)c1cccc(Nc2nnc(Nc3nc4ccccc4s3)c3c2CCCC3)n1 [Example 24, 6-[[4-(1,3-Benzothiazol-2-ylamino)-5,6,7,8-tetrahydrophthalazin-1-yl]amino]pyridine-2-carboxylic acid]
 | > 13000 | 37 | ≥ 9760 | Cc1cc(N(CCN2CCOCC2)c2nc(C(=O)O)cs2)nnc1Nc1nc2ccccc2s1 [Example 41, 2-({6-[(1,3-Benzothiazol-2-yl)amino]-5-methylpyridazin-3-yl}[2-(morpholin-4-yl)ethyl]amino)-1,3-thiazole-4-carboxylic acid]
